According to US20240109865A1, “INDAZOLE COMPOUNDS AS KINASE INHIBITORS” (TYRA BIOSCIENCES, INC., priority 2020, published 2024):
Counter-ions that a name gives are not always drawn. Like-named read-outs stand apart in the source and are kept apart here.

Columns and labels:
[1] = system: KG-1 cells (FGFR1-fusion); experiment: KG-1 cancer cell line cell viability assay (CellTiter-Glo 2.0); assay type: cell-based; conditions: Homo sapiens, 72 hours, Cell Titer Glo 2.0
From the text: (§1) Experimental Purpose: To detect the change of intracellular ATP by Cell Titer-Glo® and to evaluate the inhibitory effect of the compounds on cancer cell lines by determining the in vitro IC50 value of the compounds.
(§2) Cell Titer-Glo® 2.0 Luminescent cell viability assay reagent was purchased from Promega (Madison, WI). RT112/84 and KG-1 cell lines were purchased from American Type Culture Collection (Manassas, VA). UM-UC-14 cell line was purchased from Sigma (St. Louis, MO). RT112/84, UM-UC-14, and KG-1 cells were cultured in RPMI1640 media supplemented with 10% fetal bovine serum. Cultures were maintained at 37° C. in a humidified atmosphere of 5% C02 and 95% air.
(§3) Cell Viability Assay Procedure: Cells were plated in 96-well clear bottom/white plates (Corning #3903) at 10,000 cells/well in 100 μl of media, incubated overnight. The next day, test compound DMSO stock solutions were made at 10 mM and 2 μM final concentration. Compounds were then added to cells in a 9-dose, 10-fold dilution series starting at 30 μM with an HP 300e Digital Dispenser (each dose was applied in triplicate). DMSO was backfilled to each well up to 301 nL total volume of test compound+DMSO, and a total of 301 nL DMSO was added to a control/no test compound well in triplicate. The cells in cell culture plates were incubated with the compounds at 37° C. and 5% C02 for 72 hours. Then 50 μl of Cell Titer Glo 2.0 reagent was added to each well of the cell culture plates. The contents were covered from light and mixed on an orbital shaker at room temperature for 10 min. Luminescence was recorded by a Synergy H1 Microplate Reader (Biotek, Winooski, VT). Cells were assessed as a percentage of DMSO only treated control cells. Curves were plotted and IC50 values were calculated using the GraphPad Prism 8 program based on a sigmoidal dose-response equation (4 parameter).

[2] = system: UM-UC-14 cells (FGFR3(S249C)); experiment: UM-UC-14 cancer cell line cell viability assay (CellTiter-Glo 2.0); assay type: cell-based; conditions: UMUC14, 72 hours, Cell Titer Glo 2.0
From the text: as §1, §2, §3

FGFR1-BCR Ba/F3 cells = FGFR1-BCR Ba/F3 cells (Homo sapiens, UniProt P11362); experiment: Ba/F3 cell viability assay (CellTiter-Glo 2.0), FGFR1-BCR Ba/F3; assay type: cell-based
FGFR1-BCR Ba/F3 cells, sequence (P11362 22-822 limits assumed, change not shown): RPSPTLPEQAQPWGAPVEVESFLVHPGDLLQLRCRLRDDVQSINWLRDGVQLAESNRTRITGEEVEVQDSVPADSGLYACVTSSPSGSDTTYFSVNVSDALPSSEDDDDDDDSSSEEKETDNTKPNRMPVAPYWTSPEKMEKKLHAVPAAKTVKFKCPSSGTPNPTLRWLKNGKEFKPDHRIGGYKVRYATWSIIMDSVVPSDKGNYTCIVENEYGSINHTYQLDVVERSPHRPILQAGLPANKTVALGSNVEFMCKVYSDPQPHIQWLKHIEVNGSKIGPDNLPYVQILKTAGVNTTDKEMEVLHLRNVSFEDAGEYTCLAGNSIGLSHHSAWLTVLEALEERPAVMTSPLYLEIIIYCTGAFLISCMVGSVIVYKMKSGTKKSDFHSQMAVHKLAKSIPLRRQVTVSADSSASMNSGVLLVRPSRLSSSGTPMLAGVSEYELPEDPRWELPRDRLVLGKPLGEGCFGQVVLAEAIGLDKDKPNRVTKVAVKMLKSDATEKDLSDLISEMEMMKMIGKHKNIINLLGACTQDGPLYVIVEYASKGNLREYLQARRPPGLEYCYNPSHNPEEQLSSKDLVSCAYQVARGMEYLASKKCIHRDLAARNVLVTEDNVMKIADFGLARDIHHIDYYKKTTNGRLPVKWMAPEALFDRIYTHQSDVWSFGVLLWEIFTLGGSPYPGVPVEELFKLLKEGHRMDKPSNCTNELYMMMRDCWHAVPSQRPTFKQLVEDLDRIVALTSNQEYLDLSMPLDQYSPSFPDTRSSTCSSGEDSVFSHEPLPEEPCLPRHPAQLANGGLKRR
In short: (§4)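 Viability read as ATP luminescence (CellTiter-Glo 2.0) after 48 h compound exposure, normalized to DMSO-treated cells and fitted with a 4-parameter curve for IC50. Cells: Ba/F3 dependent on FGFR1-BCR or FGFR3-BAIAP2L1 fusion kinase; top dose 30 μM, 10-fold steps, 9 doses in triplicate.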

[3] = system: RT112/84 cells (FGFR3-fusion); experiment: RT112/84 cancer cell line cell viability assay (CellTiter-Glo 2.0); assay type: cell-based; conditions: Homo sapiens, 72 hours, Cell Titer Glo 2.0
In short: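 Viability was measured as cellular ATP by CellTiter-Glo 2.0 luminescence after 72 h compound exposure, using nine 10-fold doses from 30 μM, in triplicate. Cells were plated at 10,000/well in RPMI1640 with 10% FBS the day before dosing. Signal was expressed as % of DMSO-treated control, and IC50 came from a 4-parameter fit.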

[4] = molecular target: FGFR3-BAIAP2L1 Ba/F3 cells (Homo sapiens, UniProt P22607); experiment: Ba/F3 cell viability assay (CellTiter-Glo 2.0), FGFR3-BAIAP2L1 Ba/F3; assay type: cell-based
FGFR3-BAIAP2L1 Ba/F3 cells, sequence (P22607 23-806 limits assumed, change not shown): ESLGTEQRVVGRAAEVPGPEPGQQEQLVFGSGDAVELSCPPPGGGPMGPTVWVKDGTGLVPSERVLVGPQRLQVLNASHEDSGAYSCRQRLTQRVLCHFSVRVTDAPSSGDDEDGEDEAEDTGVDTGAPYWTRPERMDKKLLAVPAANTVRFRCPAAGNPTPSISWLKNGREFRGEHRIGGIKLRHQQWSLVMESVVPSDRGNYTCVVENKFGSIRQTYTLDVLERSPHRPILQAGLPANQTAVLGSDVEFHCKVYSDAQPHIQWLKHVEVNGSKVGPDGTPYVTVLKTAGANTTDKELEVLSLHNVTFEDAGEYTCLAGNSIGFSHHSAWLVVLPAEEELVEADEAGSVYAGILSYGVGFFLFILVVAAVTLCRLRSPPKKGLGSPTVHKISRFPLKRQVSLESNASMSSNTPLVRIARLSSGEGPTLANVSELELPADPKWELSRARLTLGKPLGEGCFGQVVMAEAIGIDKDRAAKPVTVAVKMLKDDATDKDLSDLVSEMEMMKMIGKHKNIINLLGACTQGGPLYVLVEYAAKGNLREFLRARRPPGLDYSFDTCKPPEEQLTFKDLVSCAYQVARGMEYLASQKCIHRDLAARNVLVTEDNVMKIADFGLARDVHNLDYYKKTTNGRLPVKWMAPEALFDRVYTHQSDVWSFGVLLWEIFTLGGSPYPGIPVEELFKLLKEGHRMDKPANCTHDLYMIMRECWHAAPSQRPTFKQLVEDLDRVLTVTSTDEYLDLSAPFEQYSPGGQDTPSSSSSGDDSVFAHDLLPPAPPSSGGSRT
In short: as §4

FGFR3 (V555M) = FGFR3 (V555M) (Homo sapiens (Human), UniProt P22607, V555M); experiment: Kinase assay, binding constants (Kd), kinase-tagged T7 phage, qPCR; conditions: V555M mutant
FGFR3 (V555M), sequence (P22607 23-806 V555M): as the sequence (P22607 23-806 limits assumed, change not shown) above, with V533M counted along it
In short: (§5)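 Kinase-tagged T7 phage (grown in BL21-derived E. coli) competed with test compound for immobilized biotinylated ligand on streptavidin beads. Kds came from an 11-point 3-fold dilution series at 0.9% final DMSO. Bound kinase was eluted with non-biotinylated ligand and quantified by qPCR, with Hill slope fixed at −1.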

FGFR1 = FGFR1 (Homo sapiens (Human), UniProt P11362); experiment: as above
FGFR1, sequence (P11362 22-822): as the sequence (P11362 22-822 limits assumed, change not shown) above
In short: as §5

FGFR2 = FGFR2 (Homo sapiens (Human), UniProt P21802); experiment: as above
FGFR2, sequence (P21802 22-821): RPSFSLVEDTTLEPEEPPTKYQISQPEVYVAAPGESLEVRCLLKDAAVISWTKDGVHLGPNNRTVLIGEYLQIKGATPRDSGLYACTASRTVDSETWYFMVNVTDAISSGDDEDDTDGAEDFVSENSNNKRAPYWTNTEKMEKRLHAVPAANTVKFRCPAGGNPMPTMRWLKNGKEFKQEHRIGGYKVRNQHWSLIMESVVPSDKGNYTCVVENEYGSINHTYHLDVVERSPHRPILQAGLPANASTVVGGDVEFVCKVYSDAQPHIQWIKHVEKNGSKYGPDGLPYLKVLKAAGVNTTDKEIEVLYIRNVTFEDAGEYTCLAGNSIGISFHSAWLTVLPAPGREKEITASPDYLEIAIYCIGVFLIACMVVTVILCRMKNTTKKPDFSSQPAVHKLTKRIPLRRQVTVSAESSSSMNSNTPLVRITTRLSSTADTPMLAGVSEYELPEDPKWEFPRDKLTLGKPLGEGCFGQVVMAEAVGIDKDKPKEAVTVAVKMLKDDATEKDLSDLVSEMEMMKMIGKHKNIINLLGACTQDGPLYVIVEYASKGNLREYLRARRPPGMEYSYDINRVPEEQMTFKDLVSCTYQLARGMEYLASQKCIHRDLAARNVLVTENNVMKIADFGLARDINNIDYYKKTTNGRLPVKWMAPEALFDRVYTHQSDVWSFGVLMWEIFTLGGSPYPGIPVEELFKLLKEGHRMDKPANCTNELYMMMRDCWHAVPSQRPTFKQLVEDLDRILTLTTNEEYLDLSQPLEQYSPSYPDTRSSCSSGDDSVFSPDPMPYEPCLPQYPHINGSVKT
In short: as §5

FGFR4 = FGFR4 (Homo sapiens (Human), UniProt P22455); experiment: as above
FGFR4, sequence (P22455 22-802): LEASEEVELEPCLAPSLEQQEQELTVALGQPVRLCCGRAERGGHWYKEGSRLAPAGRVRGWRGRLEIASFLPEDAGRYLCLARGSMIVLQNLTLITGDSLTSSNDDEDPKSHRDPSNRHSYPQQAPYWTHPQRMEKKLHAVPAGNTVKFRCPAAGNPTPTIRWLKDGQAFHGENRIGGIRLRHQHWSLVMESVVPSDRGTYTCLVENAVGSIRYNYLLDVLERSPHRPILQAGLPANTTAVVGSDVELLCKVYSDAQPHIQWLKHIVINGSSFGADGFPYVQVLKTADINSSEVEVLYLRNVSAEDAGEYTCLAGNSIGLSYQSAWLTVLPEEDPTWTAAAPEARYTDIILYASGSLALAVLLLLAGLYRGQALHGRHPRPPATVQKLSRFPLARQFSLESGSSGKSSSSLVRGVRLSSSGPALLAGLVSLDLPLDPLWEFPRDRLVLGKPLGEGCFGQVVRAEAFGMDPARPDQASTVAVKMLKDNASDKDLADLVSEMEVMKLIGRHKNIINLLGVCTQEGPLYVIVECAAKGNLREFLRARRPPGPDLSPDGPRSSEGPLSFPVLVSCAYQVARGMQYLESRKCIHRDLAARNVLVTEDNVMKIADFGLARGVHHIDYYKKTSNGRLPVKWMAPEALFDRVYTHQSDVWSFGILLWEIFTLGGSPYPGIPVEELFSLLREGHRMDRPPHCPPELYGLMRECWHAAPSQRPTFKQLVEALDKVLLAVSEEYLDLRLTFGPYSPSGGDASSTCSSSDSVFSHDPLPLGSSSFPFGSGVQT
In short: as §5

FGFR3 = FGFR3 (Homo sapiens (Human), UniProt P22607); experiment: as above
FGFR3, sequence (P22607 23-806): as the sequence (P22607 23-806 limits assumed, change not shown) above
In short: as §5

[5] = read-out: Ba/F3 Cells FGFR1 (IC50 nM), 48 hours, Cell Titer Glo 2.0
[6] = FGFR3 > FGFR1 selectivity ratio in Ba/F3 FGFR fusion cell based assays
[7] = read-out: Ba/F3 Cells FGFR3 (IC50 nM); FGFR3-BAIAP2L1 Ba/F3 cells, 48 hours, Cell Titer Glo 2.0

Row | SMILES | IC50 [1] [nM] | IC50 [2] [nM] | IC50 (FGFR1-BCR Ba/F3 cells; [5]) [nM] | IC50 [3] [nM] | Ba/F3 FGFR1/FGFR3 Selectivity [4, 6] | IC50 [4, 7] [nM] | Kd (FGFR3 (V555M)) [nM] | Kd (FGFR1) [nM] | Kd (FGFR2) [nM] | Kd (FGFR4) [nM] | Kd (FGFR3) [nM] | IC50 (FGFR1-BCR Ba/F3 cells; 48 hours, Cell Titer Glo 2.0, read-out: Ba/F3 Cells FGFR1 (IC50 nM)) [nM] | IC50 ([4]; FGFR3-BAIAP2L1 Ba/F3 cells, 48 hours, Cell Titer Glo 2.0; read-out: Ba/F3 Cells FGFR3 (IC50 nM)) [nM]
1 | C[C@@H](Oc1ccc2[nH]nc(-c3ccc(N4CCN(S(C)(=O)=O)CC4)nc3)c2c1)c1c(Cl)cncc1Cl [Example 6, 5-[(1R)-1-(3,5-dichloro-4-pyridyl)ethoxy]-3-[6-(4-methylsulfonyl-piperazin-1-yl)-3-pyridyl]-1H-indazole] | 20 to 100 | 1 to 20 | 20 to 100 | 1 to 20 | 13 | 1 to 20 | 1 to 20 | 1 to 20 | 20 to 100 | 1 to 20 | 1 to 20 | – | –
2 | C[C@@H](Oc1ccc2[nH]nc(-c3ccc(N4CCN(C(=O)N5CCOCC5)CC4)nc3)c2c1)c1c(Cl)cncc1Cl [Example 3, [4-[5-[5-[(1R)-1-(3,5-dichloro-4-pyridyl)ethoxy]-1H-indazol-3-yl]-2-pyridyl]piperazin-1-yl]-morpholino-methanone] | 20 to 100 | 1 to 20 | 20 to 100 | 1 to 20 | 18 | 1 to 20 | 1 to 20 | 1 to 20 | 1 to 20 | 1 to 20 | 1 to 20 | – | –
3 | C[C@@H](Oc1ccc2[nH]nc(-c3ccc(N4CCC5(CCN(C)C5)CC4)nc3)c2c1)c1c(Cl)cncc1Cl [Example 32, 8-[5-[5-[(1R)-1-(3,5-dichloro-4-pyridyl)ethoxy]-1H-indazol-3-yl]-2-pyridyl]-2-methyl-2,8-diazaspiro[4.5]decane] | 20 to 100 | 1 to 20 | 100 to 300 | 1 to 20 | 12 | 1 to 20 | 1 to 20 | 1 to 20 | 1 to 20 | 1 to 20 | 1 to 20 | – | –
4 | C[C@@H](Oc1ccc2[nH]nc(-c3ccc(N4CC5(CN(C(=O)N(C)C)C5)C4)nc3)c2c1)c1c(Cl)cncc1Cl [Example 47, 6-[5-[5-[(1R)-1-(3,5-dichloro-4-pyridyl)ethoxy]-1H-indazol-3-yl]-2-pyridyl]-N,N-dimethyl-2,6-diazaspiro[3.3]heptane-2-carboxamide] | 100 to 300 | 1 to 20 | 100 to 300 | 1 to 20 | 21 | 1 to 20 | 1 to 20 | 1 to 20 | 1 to 20 | 1 to 20 | 1 to 20 | – | –
5 | CCOC(=O)N1CC2(C1)CN(c1ccc(-c3n[nH]c4ccc(O[C@H](C)c5c(C)cnnc5C)cc34)cn1)C2 [Example 142, ethyl 6-[5-[5-[(1R)-1-(3,5-dimethylpyridazin-4-yl)ethoxy]-1H-indazol-3-yl]-2-pyridyl]-2,6-diazaspiro[3.3]heptane-2-carboxylate] | 100 to 300 | 1 to 20 | 100 to 300 | 20 to 100 | 25 | 1 to 20 | 1 to 20 | 20 to 100 | 1 to 20 | 1 to 20 | 1 to 20 | – | –
6 | C[C@@H](Oc1ccc2[nH]nc(-c3ccc(N4CC5CC(C4)N5S(C)(=O)=O)nc3)c2c1)c1c(Cl)cncc1Cl [Example 20, 5-[(1R)-1-(3,5-dichloro-4-pyridyl)ethoxy]-3-[6-(6-methylsulfonyl-3,6-diazabicyclo[3.1.1]heptan-3-yl)-3-pyridyl]-1H-indazole] | 100 to 300 | 20 to 100 | – | 20 to 100 | 15 | – | 1 to 20 | 20 to 100 | 20 to 100 | 1 to 20 | 1 to 20 | > 300 | 20 to 100
7 | C[C@@H](Oc1ccc2[nH]nc(-c3ccc(N4CCNCC4)nc3)c2c1)c1c(Cl)cncc1Cl [Example 2, (R)-5-(1-(3,5-Dichloropyridin-4-yl)ethoxy)-3-(6-(piperazin-1-yl)pyridin-3-yl)-1H-indazole dihydrochloride] | – | 1 to 20 | 100 to 300 | – | 15 | 1 to 20 | 1 to 20 | 1 to 20 | 1 to 20 | 1 to 20 | 1 to 20 | – | –
8 | C[C@@H](Oc1ccc2[nH]nc(-c3cnc(N4CC5(CCN(S(C)(=O)=O)C5)C4)nc3)c2c1)c1c(Cl)cncc1Cl [Example 157, 5-[(1R)-1-(3,5-dichloro-4-pyridyl)ethoxy]-3-[2-(7-methylsulfonyl-2,7-diazaspiro[3.4]octan-2-yl)pyrimidin-5-yl]-1H-indazole] | – | 100 to 300 | 100 to 300 | 20 to 100 | 7 | 1 to 20 | 1 to 20 | 20 to 100 | 20 to 100 | 1 to 20 | 1 to 20 | – | –
9 | C[C@@H](Oc1ccc2[nH]nc(-c3cnc(N4CC5(CCS(=O)(=O)C5)C4)nc3)c2c1)c1c(Cl)cncc1Cl [Example 122, 2-[5-[5-[(1R)-1-(3,5-dichloro-4-pyridyl)ethoxy]-1H-indazol-3-yl]pyrimidin-2-yl]-6λ^6-thia-2-azaspiro[3.4]octane 6,6-dioxide] | 100 to 300 | – | 20 to 100 | 1 to 20 | 7 | 1 to 20 | 1 to 20 | 1 to 20 | 20 to 100 | 1 to 20 | 1 to 20 | – | –
10 | C[C@@H](Oc1ccc2[nH]nc(-c3cnc(N4CCC5(CCC(=O)N5)CC4)c(F)c3)c2c1)c1c(Cl)cncc1Cl [Example 42, 8-[5-[5-[(1R)-1-(3,5-dichloro-4-pyridyl)ethoxy]-1H-indazol-3-yl]-3-fluoro-2-pyridyl]-1,8-diazaspiro[4.5]decan-2-one] | 20 to 100 | – | 100 to 300 | 1 to 20 | 17 | 1 to 20 | 1 to 20 | 1 to 20 | 20 to 100 | 1 to 20 | 1 to 20 | – | –
11 | C[C@@H](Oc1ccc2[nH]nc(-c3cnc(N4CC5(C4)CN(S(C)(=O)=O)C5)nc3)c2c1)c1c(Cl)cncc1Cl [Example 119, 5-[(1R)-1-(3,5-dichloro-4-pyridyl)ethoxy]-3-[2-(2-methylsulfonyl-2,6-diazaspiro[3.3]heptan-6-yl)pyrimidin-5-yl]-1H-indazole] | 100 to 300 | – | 20 to 100 | 20 to 100 | 9 | 1 to 20 | 1 to 20 | 20 to 100 | 20 to 100 | 1 to 20 | 1 to 20 | – | –
12 | C[C@@H](Oc1ccc2[nH]nc(-c3cnn(C4CCOCC4)c3)c2c1)c1c(Cl)cncc1Cl [Example 106, 5-[(1R)-1-(3,5-dichloro-4-pyridyl)ethoxy]-3-(1-tetrahydropyran-4-ylpyrazol-4-yl)-1H-indazole] | 100 to 300 | – | 100 to 300 | 1 to 20 | 11 | 1 to 20 | 1 to 20 | 1 to 20 | 1 to 20 | 1 to 20 | 1 to 20 | – | –
